Assay results published in patent publication US20050143411A1, “Method for treating pulmonary disease” (Fujisawa Pharmaceutical Co., Ltd., priority 2003, published 2005).

Test system: cigarette smoke exposed guinea pigs
Assay: cigarette smoke-induced COPD model in guinea pigs; specific airway resistance (sRaw) by double body plethysmograph
Type: in vivo, Hartley guinea pigs
Protocol: The effect of the FK506 Substance on the cigarette smoke-induced COPD model in guinea pigs was confirmed in the following manner.
1. Hartley guinea pigs were exposed to cigarette smoke in a nose-only inhalation chamber for 60 min/day, 5 days/week, for 4 weeks. Animals of the negative control group were exposed to the air.
2. FK506 Substance in the form of a solid dispersion composition, which was prepared in a similar manner to that of Example 1 (above), or its placebo was given orally, after suspension in water, every day about 1 hr before the cigarette smoke exposure.
3. Specific airway resistance (sRaw) was measured as a respiratory function parameter at 0, 1, 2, 3 and 4 weeks after the start of cigarette smoke inhalation by a double body plethysmograph method (Ref. 1).
Reference • Ref. 1; Pennock B E, Cox C P, Rogers R M, Cain W A, Wells J H. A Noninvasive technique for measurement of changes in specific airway resistance. J Appl Physiol. 1979 February; 46(2):399-406. Results

C=CCC1C=C(C)CC(C)CC(OC)C2OC(O)(C(=O)C(=O)N3CCCCC3C(=O)OC(C(C)=CC3CCC(O)C(OC)C3)C(C)C(O)CC1=O)C(C)CC2OC (centres unmarked) [FK506, 17-allyl-1,14-dihydroxy-12-[2-(4-hydroxy-3-methoxycyclohexyl)-1-methylvinyl]-23,25-dimethoxy-13,19,21,27-tetramethyl-11,28-dioxa-4-azatricyclo[22.3.1.0^4,9]octacos-18-ene-2,3,10,16-tetraone]
sRaw (FK506 0.32 mg/kg orally every day, 1 week of cigarette smoke exposure): 1.815 ± 0.073 cmH2O × mL/(mL/sec) | sRaw (FK506 0.32 mg/kg orally every day, 2 weeks of cigarette smoke exposure): 2.089 ± 0.054 cmH2O × mL/(mL/sec) | sRaw (FK506 0.32 mg/kg orally every day, 3 weeks of cigarette smoke exposure): 2.476 ± 0.112 cmH2O × mL/(mL/sec) | sRaw (FK506 0.32 mg/kg orally every day, 4 weeks of cigarette smoke exposure): 2.636 ± 0.133 cmH2O × mL/(mL/sec) | sRaw (FK506 0.32 mg/kg orally every day, pre (0 weeks), n=8): 1.892 ± 0.048 cmH2O × mL/(mL/sec) | sRaw (FK506 1 mg/kg orally every day, 1 week of cigarette smoke exposure): 1.844 ± 0.123 cmH2O × mL/(mL/sec) | sRaw (FK506 1 mg/kg orally every day, 2 weeks of cigarette smoke exposure): 2.012 ± 0.103 cmH2O × mL/(mL/sec) | sRaw (FK506 1 mg/kg orally every day, 3 weeks of cigarette smoke exposure): 2.372 ± 0.167 cmH2O × mL/(mL/sec) | sRaw (FK506 1 mg/kg orally every day, 4 weeks of cigarette smoke exposure): 2.763 ± 0.276 cmH2O × mL/(mL/sec) | sRaw (FK506 1 mg/kg orally every day, pre (0 weeks), n=8): 1.899 ± 0.064 cmH2O × mL/(mL/sec) | effect on decline of the respiratory function (increase of sRaw) caused by cigarette smoke (orally given, cigarette smoke exposed guinea pigs): significantly suppressed the decline of the respiratory function
